From article PMC4926499, “TSPO Ligand-Methotrexate Prodrug Conjugates: Design, Synthesis, and Biological Evaluation” (International Journal of Molecular Sciences, 2016)
Like-named read-outs stand apart in the source and are kept apart here.

How the values were obtained:
TSPO [1] = biological target: T1, TSPO (Rattus norvegicus, UniProt P16257); conditions: cited from earlier work
T1 construct: were assessed to membrane preparations from rat cerebral cortex as described previously; from tissue; host or cells: rat cerebral cortex membranes

[2] = biological target: central-type benzodiazepine receptor (CBR); conditions: rat cerebral cortex membranes, [3H]flunitrazepam; cited from earlier work
[3] = Stability in diluted rat serum solution (50% v/v) at 37 °C; format: in vitro ADME; conditions: diluted rat serum (50% v/v), pH 7.4, 50% v/v rat serum, pH 7.4, 37 °C, read-out: t1/2 (h) Diluted Rat Serum
Procedure: (§1) The chemical stability of the TSPO-ligand MTX conjugates 3 and 4 was evaluated in 50 mM phosphate buffer solution at pH 7.4 and 37 °C; the physiological stability was also determined using a dilute rat serum solution (50% v/v) at 37 °C. The aim of this work is the synthesis of TSPO ligand-MTX conjugates in order to improve the plasma stability and having less side effects than MTX. In addition TSPO ligand-MTX conjugates could enhance the transport across BBB and due a tumor targeting effect for the TSPO moiety, might selectively deliver the antineoplastic agent to brain tumors and prolong its efficacy. The TSPO-ligand MTX conjugates 3 and 4 are stable in buffer solution at pH 7.4 and enough stable in physiological medium with their half-lives exceeding 3 h. […] In addition, CB86 (m/z = 407, [M + Na]^+) (Figure 1), most likely originating from the degradation of ligand 2, as previously shown, could be detected. Other products arising from the further degradation of the anticancer drug were found.
The TSPO ligand-MTX conjugates 3 and 4 stabilities in physiological medium were studied at 37 °C in 0.05 M phosphate buffer and 0.14 M NaCl at pH 7.4, containing 50% v/v of rat serum. […] Samples were centrifuged at 3500 rpm for 10 min, and the supernatant was removed, filtered through cellulose acetate membranes (0.22 µm, Advantec MFS) and then 20 µL of filtrates were immediately analyzed by HPLC. […]

SF126 human glioma cells = test: Cytotoxicity by MTT assay, SF126 cells; format: cell-based; conditions: SF-126
[4] = Chemical stability in 50 mM phosphate buffer pH 7.4 at 37 °C; format: physicochemical; conditions: 0.05 M phosphate buffer pH 7.4, 37 °C; read-out: t1/2 (h) PBS (converted)
Procedure: as §1
TSPO ligand-MTX conjugates 3 and 4 chemical stabilities were studied at pH 7.4 in 0.05 M phosphate buffer at 37 °C. […] At appropriate time intervals, aliquots of 100 µL of each sample were removed, filtered through cellulose acetate membranes (0.22 µm, Advantec MFS, Pleasanton, CA, USA), and then 20 µL of filtrates were immediately analyzed by HPLC. […]

SF188 human glioma cells = test: Cytotoxicity by MTT assay, SF188 cells; format: cell-based; conditions: SF-188
C6 rat glioma cells = test: Cytotoxicity by MTT assay, C6 cells; format: cell-based; conditions: Glioma cell, 24 h exposure
Excerpt: (§2) These cellular lines were selected for their high expression level of TSPO and, therefore, have been used extensively for in vitro experiments on the brain tumor models and for cytotoxicity studies relating to anticancer drugs, as well as TSPO-ligands and its nanodevices. The tested compounds show high cytotoxicity on all cell lines, especially for C6 rat glioma cells. In particular, the TSPO-ligand MTX α-conjugates 3 appears to be the most cytotoxic displaying a lower IC50 value compared to MTX on C6 cells.
(§3) Rat RG2 and C6 glioma cells were grown in DMEM (Dulbecco’s modified Eagle’s medium, Sigma Aldrich, Milano, Italy) nutrient supplemented with 10% heat inactivated FBS (Fetal Bovine Serum, Sigma Aldrich), 2 mM, L-glutamine, penicillin (100 U/mL), and streptomycin (100 µg/mL) at 37 °C in a humidified 5% CO2 atmosphere. Cells were fed every day and seeded in 96-well plates at a density of ~5000 cells/well for assays. MTX and TSPO ligand-MTX conjugates were dissolved in DMSO at initial concentrations of 1000 µg/mL and then diluted with medium. Cells were exposed to different concentrations of compounds (0.1–1000 nM) for 24 h.
(§4) Cell viability was evaluated by MTT (3-(4,5-dimethylthiazol-2-yl)-2,5-diphenyltetrazolium bromide) assay as previously described. In brief, 10 µL of MTT (5.0 mg/mL) was added to the cells and cultured at 37 °C, in a humidified 5% CO2 atmosphere for 2 h. After this period, medium was removed and the cells were replaced with 150 µL of a DMSO/ethanol (1:1) solution per well. The absorbance of the individual well was measured by microplate reader (Wallac Victor3, 1420 Multilabel Counter, Perkin-Elmer (Waltham, MA, USA). All experiments were repeated three times and each compound’s concentration was tested in triplicate.

[5] = biological target: central-type benzodiazepine receptor (CBR); test: Radioligand binding assay, displacement of [3H]flunitrazepam from rat cerebral cortex membranes
Procedure: (§5) The IC50 values were determined from the displacement curves using the reference compound [^3H]-PK 11195, for TSPO, or [^3H]flunitrazepam for CBR. The data obtained, expressed as IC50 values, as well as the ratios between CBR and TSPO affinity, respectively (Selectivity Index, SI), as a measure of the in vitro selectivity, are shown in Table 2 and were compared with unlabeled TSPO selective ligand PK 11195, and with CBR selective ligand flunitrazepam. […] Moreover, the SI of TSPO-ligand MTX conjugate 3 is similar to the reference compound PK 11195. […] Thus, the binding quantification of TSPO ligands is confounded by the expression of different forms of TSPO and to assess the potentially therapeutic use of TSPO-ligands would be appropriate to genetically test the patients.
(§6) Binding assays ([^3H]Flunitrazepam and [^3H]PK 11195 bindings) were assessed to membrane preparations from rat cerebral cortex as described previously. The IC50 values (GraphPad Prism software, (La Jolla, CA, USA)) were determined from the displacement curves using the reference compound [^3H]-PK11195, for TSPO or [^3H]flunitrazepam, for CBR, respectively. The selectivity index (SI) was calculated from: IC50(CBR)/IC50(TSPO).

TSPO [6] = biological target: T1, TSPO; test: Radioligand binding assay, displacement of [3H]-PK 11195 from rat cerebral cortex membranes; conditions: for SI (selectivity index): IC50(CBR)/IC50(TSPO); for IC50: rat cerebral cortex membranes, [3H]-PK 11195
Procedure: as §5, §6

RG2 rat glioma cells = test: Cytotoxicity by MTT assay, RG2 cells; format: cell-based; conditions: Glioma cell, 24 h exposure
Excerpt: as §2, §3, §4

[7] = Transport across MDCKII-MDR1 cell monolayer; conditions: dog, MDCK-MDR1, pH 7.4
Procedure: (§7) The apparent permeability coefficient (Papp) of each compound was calculated on the basis of the amounts permeated through MDCKII-MDR1 monolayer by the equation: Papp=VA dC/A[D]in dt where VA (dC/dt) is the linear appearance rate of mass in the receiver solution; A is the filter/cell surface area and [D]in is the initial tested compound concentration in the apical (AP) chamber. The Papp values were evaluated in apical to basolateral direction. […] On an experimental day, the integrity of the cell monolayer was assessed by measuring the transendothelial electrical resistance (TEER) value.
(§8) The bi-directional transport study was conducted as previously reported [15]. A Transwell® 12 plate consisting of differentiated MDCKII-MDR1cells plated on polyester microporous filters (12 mm diameter, 0.4 µm pore size, 0.5 mL apical volume, 1.5 mL basolateral volume) at a density of 100,000 cells/cm^2, was used for the permeability assay. The integrity of the cell monolayer was assessed by measuring the TEER value in each well, using an epithelial volt-ohm meter (EVOM). Cell monolayers with TEER 120–140 Ohm/cm^2 were used. […] Fresh assay medium was placed in the receiver compartment. […] After incubation time of 2 h, samples were removed from the apical side of the monolayer and then analyzed. […] All experiments were repeated three times and each compound was tested in triplicate.

in vitro = conditions: dog, MDCK-MDR1, pH 7.4
Procedure: as §7, §8

Structure (SMILES)	SI (selectivity index) (TSPO [1]; IC50(CBR)/IC50(TSPO))	IC50 (TSPO [1]; read-out: IC50 (nM) TSPO Cortex, rat cerebral cortex membranes, [3H]-PK 11195)	IC50 [2]	melting point	half-life [3]	IC50 (SF126 human glioma cells)	half-life [4]	IC50 (SF188 human glioma cells)	IC50 (C6 rat glioma cells)	IC50 [5]	SI (selectivity index) (TSPO [6])	IC50 (TSPO [6])	IC50 (RG2 rat glioma cells)	Papp at 2 h, 75 µM [7]	Papp at 2 h, 75 µM (in vitro)
CCCN(CCC)C(=O)Cc1c(-c2ccc(Cl)cc2)nc2c(NC(=O)CN)cccn12 [Compound 2, N,N-dipropyl-[2-(8-(2-aminoacetamido)-2-(4-chlorophenyl)imidazo[1,2-a]pyridin-3-yl)]acetamide]	>4.1 × 10^3	24 ± 4.2 nM	> 100000 nM	–	–	–	–	–	–	–	–	–	–	–	–
CCCN(CCC)C(=O)Cc1c(-c2ccc(Cl)cc2)nc2c(NC(=O)CNC(=O)C(CCC(=O)O)NC(=O)c3ccc(N(C)Cc4cnc5nc(N)nc(N)c5n4)cc3)cccn12 (centres unmarked) [Compound 3, 5-(2-(2-(4-Chlorophenyl)-3-(2-(dipropylamino)-2-oxoethyl)imidazo[1,2-a]pyridin-8-ylamino)-2-oxoethylamino)-4-(4-(((2,4-diaminopteridin-6-yl)methyl)(methyl)amino)benzamido)-5-oxopentanoic acid]	–	–	–	210 °C (dec.)	> 3 h	14.2 ± 4.2 nM	144 ± 25 h	9.2 ± 3.4 nM	1.2 ± 0.7 nM	> 100000 nM	>1.4 × 10^4	7.2 ± 2.1 nM	4.2 ± 3.2 nM	3.65 ×10⁻⁶ cm/s	–
CCCN(CCC)C(=O)Cc1c(-c2ccc(Cl)cc2)nc2c(NC(=O)CNC(=O)CCC(NC(=O)c3ccc(N(C)Cc4cnc5nc(N)nc(N)c5n4)cc3)C(=O)O)cccn12 (centres unmarked) [Compound 4, 5-(2-(2-(4-Chlorophenyl)-3-(2-(dipropylamino)-2-oxoethyl)imidazo[1,2-a]pyridin-8-ylamino)-2-oxoethylamino)-2-(4-(((2,4-diaminopteridin-6-yl)methyl)(methyl)amino)benzamido)-5-oxopentanoic acid]	–	–	–	190 °C (dec.)	> 3 h	25 ± 2.6 nM	74 ± 12 h	18.2 ± 2 nM	2.2 ± 0.6 nM	> 100000 nM	>2.5 × 10^3	40.3 ± 3.8 nM	15.2 ± 2.9 nM	3.32 ×10⁻⁶ cm/s	–
CN1C(=O)CN=C(c2ccccc2F)c2cc([N+](=O)[O-])ccc21 [Flunitrazepam]	–	–	5.1 ± 0.5 nM	–	–	–	–	–	–	–	–	–	–	–	–
CN(Cc1cnc2nc(N)nc(N)c2n1)c1ccc(C(=O)N[C@@H](CCC(=O)O)C(=O)O)cc1 [MTX, 2,4-diamino-N^10-methylpteroylglutamic acid, reference compound]	–	–	–	–	–	1.2 ± 0.3 nM	–	1.2 ± 0.2 nM	2.6 ± 0.8 nM	–	–	–	3.8 ± 1.5 nM	–	0.091 ×10⁻⁶ cm/s
CCC(C)N(C)C(=O)c1cc2ccccc2c(-c2ccccc2Cl)n1 (centres unmarked) [PK11195]	–	–	> 100000 nM	–	–	–	–	–	–	–	–	–	–	–	–
